Data as given in paper PMC12387383, “Screening and Assessment of Hypoglycemic Active Peptide from Natural Edible Pigment Phycobiliprotein Based on Molecular Docking, Network Pharmacology, Enzyme Inhibition Assay Analyses, and Cell Experiments” (Marine Drugs, 2025).
pIC50: −log10 of the molar value. Peptide text beside a SMILES is read from it.

What was measured:
DPP-IV = molecular target: T1, DPP-IV (Homo sapiens, UniProt P27487); assay: DPP-IV inhibitor screening kit (fluorescence); assay type: biochemical; conditions: mean ± SD, n = 3
T1 construct: purchased Elabscience Biotechnology Co., Ltd. E-BC-D007
T1 sequence (P27487 whole entry, species assumed): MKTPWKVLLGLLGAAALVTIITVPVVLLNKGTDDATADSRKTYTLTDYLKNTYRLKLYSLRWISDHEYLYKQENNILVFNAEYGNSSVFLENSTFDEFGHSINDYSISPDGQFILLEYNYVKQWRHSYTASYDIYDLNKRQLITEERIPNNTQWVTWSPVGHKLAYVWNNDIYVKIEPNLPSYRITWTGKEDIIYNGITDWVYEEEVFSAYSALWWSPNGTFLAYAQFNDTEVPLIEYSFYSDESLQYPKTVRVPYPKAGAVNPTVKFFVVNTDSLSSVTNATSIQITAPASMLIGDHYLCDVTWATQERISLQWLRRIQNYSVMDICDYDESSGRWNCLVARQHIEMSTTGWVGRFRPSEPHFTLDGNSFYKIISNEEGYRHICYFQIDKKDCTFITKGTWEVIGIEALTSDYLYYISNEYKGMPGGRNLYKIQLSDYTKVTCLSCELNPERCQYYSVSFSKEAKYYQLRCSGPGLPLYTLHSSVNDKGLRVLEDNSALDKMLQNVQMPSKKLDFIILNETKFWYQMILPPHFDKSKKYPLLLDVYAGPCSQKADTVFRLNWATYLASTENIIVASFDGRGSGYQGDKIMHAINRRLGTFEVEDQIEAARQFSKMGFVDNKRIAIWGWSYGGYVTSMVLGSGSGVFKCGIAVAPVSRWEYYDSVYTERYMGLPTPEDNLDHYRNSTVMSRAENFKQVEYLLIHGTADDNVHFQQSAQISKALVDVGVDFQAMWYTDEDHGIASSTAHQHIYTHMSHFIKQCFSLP
Description: The hypoglycemic active peptides were synthesized via solid-phase synthesis by Shanghai science peptide Co., Ltd. (Shanghai, China). The purity and molecular weight of the synthesized peptides were confirmed using HPLC-MS. The α-glucosidase inhibitory activity was assessed a modified version of previously reported methods by adding 100 μL of p-NPG (1 mM) after 50 μL of peptide solution (0.125–2.0 mg/mL), and 50 μL of α-glucosidase (1 u/mL) were incubated at 37 °C for 15 min. Absorbance was measured at 405 nm after the reaction was stopped by adding 100 μL of […] after another 30 min of incubation. Similarly, α-amylase inhibitory activity was determined based on established protocols with minor modifications. Briefly, 100 μL of peptide solution (0.125–2.0 mg/mL) was mixed with 100 μL of α-amylase (1 U/mL) and incubated at 37 °C for 10 min. Then, 200 μL of pretreated soluble starch solution (2%, denatured at 95 °C for 8 min) was added, and the mixture was further incubated at 37 °C for 20 min. The reaction was stopped by adding 200 μL of DNS reagent (1% DNS; 12% sodium potassium tartrate in 0.4 M Na2CO3), followed by boiling at 100 °C for 15 min. After cooling, 200 μL of each reaction mixture was transferred to a 96-well plate, and absorbance was measured at 540 nm. DPP-IV inhibitory activity was evaluated using a DPP-IV inhibitor screening kit (Elabscience) following the manufacturer’s instructions with slight modifications. Peptide solutions were prepared at gradient concentrations (0.125, 0.25, 0.5, 1, 1.5, 2, 4, and 10 mg/mL). In a 96-well plate, 20 μL of enzyme solution and 30 μL of peptide sample were added to each well, mixed briefly, and incubated at 37 °C for 10 min. Then, 170 μL of reaction working solution was added, followed by a second incubation at 37 °C for 30 min. Fluorescence intensity was measured at an excitation wavelength of 360 nm and an emission wavelength of 460 nm. The IC50 values were determined by fitting dose–response curves using nonlinear regression analysis with a variable slope in GraphPad Prism 9. All IC50 results are expressed as mean ± SD based on three independent experiments.

IR-HepG2 cells [1] = assay: Intracellular glycogen content in IR-HepG2 cells; assay type: cell-based; conditions: GR-5, SA-6, VF-6 at 2 mmol/L, IR-7 at 1 mmol/L
Description: (§1) The IR-HepG2 cellular model was established as described in Section 3.6. […] Cell viability was evaluated in all groups to determine appropriate peptide concentrations and incubation times based on the criteria of non-cytotoxicity and maximal glucose consumption.
(§2) Glucose consumption was measured using a commercial glucose assay kit according to the manufacturer’s protocol. Intracellular glycogen content was quantified with a glycogen detection kit, while hexokinase (HK) and pyruvate kinase (PK) enzyme activities were determined using specific assay kits, following the provided instructions.

IR-HepG2 cells [2] = assay: Glucose consumption in IR-HepG2 cells; assay type: cell-based; conditions: 2 mmol/L, IR-HepG2, compared to baseline, positive control
Description: HepG2 cells were maintained in Dulbecco’s Modified Eagle Medium (DMEM) supplemented with 10% fetal bovine serum and 1% penicillin–streptomycin under controlled conditions at 37 °C in a humidified atmosphere containing 5% CO2 for 24 h.
as §1, §2

[3] = test system: pyruvate kinase (PK) in IR-HepG2 cells; assay: Pyruvate kinase activity in IR-HepG2 cells; assay type: cell-based; conditions: IR-HepG2, vs model control; GR-5, SA-6, VF-6 at 2 mmol/L, IR-7 at 1 mmol/L
Description: as §1, §2

[4] = test system: hexokinase (HK) in IR-HepG2 cells; assay: Hexokinase activity in IR-HepG2 cells; assay type: cell-based; conditions: IR-HepG2, vs model control; GR-5, SA-6, VF-6 at 2 mmol/L, IR-7 at 1 mmol/L
Description: as §1, §2

α-amylase = molecular target: T2, α-amylase (Sus scrofa, UniProt P00690); conditions: literature value; cited from earlier work
T2 sequence (P00690 16-511): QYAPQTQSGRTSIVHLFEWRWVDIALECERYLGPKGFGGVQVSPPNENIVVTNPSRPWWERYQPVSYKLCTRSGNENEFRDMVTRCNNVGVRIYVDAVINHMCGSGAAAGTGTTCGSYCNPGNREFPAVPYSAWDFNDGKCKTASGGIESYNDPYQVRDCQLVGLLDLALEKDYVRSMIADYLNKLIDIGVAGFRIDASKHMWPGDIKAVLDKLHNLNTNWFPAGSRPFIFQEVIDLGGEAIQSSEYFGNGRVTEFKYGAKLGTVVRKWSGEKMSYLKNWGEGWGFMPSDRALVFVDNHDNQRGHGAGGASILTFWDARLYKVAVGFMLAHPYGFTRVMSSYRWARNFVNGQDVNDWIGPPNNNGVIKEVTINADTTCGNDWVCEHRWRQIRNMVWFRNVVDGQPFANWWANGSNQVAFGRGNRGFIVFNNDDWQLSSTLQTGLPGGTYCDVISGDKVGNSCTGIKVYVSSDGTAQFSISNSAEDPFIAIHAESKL

Question: With `CC(C)C[C@H](NC(=O)[C@H](Cc1ccc(O)cc1)NC(=O)[C@H](Cc1ccc(O)cc1)NC(=O)CN)C(=O)N[C@@H](CCCNC(=N)N)C(=O)O` [GR-5, Gly-Tyr-Tyr-Leu-Arg] (H-GYYLR-OH; N-terminus and C-terminus assumed) as the compound, how does the pIC50 (DPP-IV) read?
Answer: Its pIC50 is 2.16.

Question: With `CC[C@H](C)[C@H](N)C(=O)N[C@@H](C)C(=O)N[C@@H](CO)C(=O)N[C@@H](Cc1ccc(O)cc1)C(=O)N[C@@H](Cc1ccccc1)C(=O)N[C@@H](CC(=O)O)C(=O)N[C@@H](CCCNC(=N)N)C(=O)O` [IR-7, Ile-Ala-Ser-Tyr-Phe-Asp-Arg] (H-IASYFDR-OH; N-terminus and C-terminus assumed) as the compound, how does the pIC50 (DPP-IV) read?
Answer: Its pIC50 is 2.98.

Question: With `C[C@H](NC(=O)[C@H](CCCNC(=N)N)NC(=O)[C@H](CC(=O)O)NC(=O)[C@H](Cc1ccccc1)NC(=O)[C@H](Cc1ccc(O)cc1)NC(=O)[C@@H](N)CO)C(=O)O` [SA-6, Ser-Tyr-Phe-Asp-Arg-Ala] (H-SYFDRA-OH; N-terminus and C-terminus assumed) as the compound, how does the pIC50 (DPP-IV) read?
Answer: Its pIC50 is 1.96.

Question: With `CC(C)[C@H](N)C(=O)N[C@@H](C)C(=O)N[C@@H](Cc1ccccc1)C(=O)NCC(=O)N[C@@H](CCCNC(=N)N)C(=O)N[C@@H](Cc1ccccc1)C(=O)O` [VF-6, Val-Ala-Phe-Gly-Arg-Phe] (H-VAFGRF-OH; N-terminus and C-terminus assumed) as the compound, how does the pIC50 (DPP-IV) read?
Answer: Its pIC50 is 2.87.

Question: Which results are given for `CN(C)C(=N)N=C(N)N` [metformin]?
Answer: increase in glycogen content (IR-HepG2 cells [1]): 24.2%; increase in glucose consumption (IR-HepG2 cells [2]): 105%; increase in PK activity [3]: 21.1%; increase in HK activity [4]: 54.9%

Question: For FPSPPLVA, which “α-amylase IC50” value (α-amylase) is on record?
Answer: The value was 920 ± 270 mg/L.

Question: With GPPMPPPPLP as the compound, how does the “α-amylase IC50” value (α-amylase) read?
Answer: Its value is 2020 ± 200 mg/L.
